Test results: patent US11149300B1, “Methods of treating gastrointestinal malignancies” (Cedars-Sinai Medical Center, priority 2018, dated 2021)
Counter-ions that a name gives are not always drawn. Like-named read-outs stand apart in the source and are kept apart here.

Key:
[1] = tested on: Melanoma (murine B16F10); conditions: agent combined with veliparib; cited from earlier work
[2] = tested on: metastatic triple negative breast cancer; conditions: cited from earlier work
[3] = tested on: pancreatic cancer; conditions: in vivo; cited from earlier work
[4] = tested on: Breast carcinoma (human MX-1); conditions: agent combined with veliparib; cited from earlier work
[5] = repeated dose toxicity in conjunction with cisplatin; format: in vivo, rats
[6] = repeated dose toxicity, sole agent; format: in vivo, rats; conditions: no adverse effects, highest dose tested
[7] = highest dose tested; cited from earlier work
[8] = repeated dose (2-week) toxicology study; conditions: 30 mg base/kg/day
[9] = in vitro; cited from earlier work
[10] = cited from earlier work
[11] = cited from earlier work; remark: listed apart in the source
[12] = in vivo; cited from earlier work
[13] = cited from earlier work; remark: listed apart in the source
[14] = tested on: C-41 cells; conditions: cited from earlier work
[15] = 8-hour incubation; cited from earlier work
[16] = mice, cited from earlier work
[17] = anesthetized dog cardiovascular model
[18] = tested on: locally advanced or borderline resectable pancreatic cancer; experiment: Phase I VelGemRad trial, PFS and OS, overall and by DDR biomarker
Protocol: RNA-seq libraries were prepared from pre-treatment tumor biopsies. The database for annotation, visualization, and integrated discovery (DAVID) v6.7 was used to interpret the differential expression genes data. Cox regression model was used to identify DNA damage related pathways associated with patient survivals.
The secondary objective was to measure the clinical activity of the treatment (progression free survival—PFS, overall survival—OS) and evaluate patient tumor or blood pre-, during and post treatment for DNA damage repair alterations, PAR levels and immune mediators. Between 2013 and 2016, 34 patients enrolled at a single institution. Four were removed due to non-compliance. The median age was 67 and 24 were LAPC and 6 were borderline resectable prostate cancer (BR).
Treatment naïve patients with LA or borderline resectable pancreatic cancer (BR) were treated with weekly G (1000 mg/m^2), daily RT (36 Gy/15 fractions) and V 20 mg BID daily for 3 weeks escalated per Bayesian method followed by standard chemotherapy. DAVID v6.7 was used to interpret transcriptomic differential expression of genes. Cox regression model was used to identify DDR pathways associated with survival. […] The log-rank test was used to evaluate differences in PFS and OS.

[19] = molecular target: human 5-HT7 (Homo sapiens, UniProt P34969); conditions: 10 μM (2.4 μg/mL); cited from earlier work
Sequence of human 5-HT7 (P34969 whole entry): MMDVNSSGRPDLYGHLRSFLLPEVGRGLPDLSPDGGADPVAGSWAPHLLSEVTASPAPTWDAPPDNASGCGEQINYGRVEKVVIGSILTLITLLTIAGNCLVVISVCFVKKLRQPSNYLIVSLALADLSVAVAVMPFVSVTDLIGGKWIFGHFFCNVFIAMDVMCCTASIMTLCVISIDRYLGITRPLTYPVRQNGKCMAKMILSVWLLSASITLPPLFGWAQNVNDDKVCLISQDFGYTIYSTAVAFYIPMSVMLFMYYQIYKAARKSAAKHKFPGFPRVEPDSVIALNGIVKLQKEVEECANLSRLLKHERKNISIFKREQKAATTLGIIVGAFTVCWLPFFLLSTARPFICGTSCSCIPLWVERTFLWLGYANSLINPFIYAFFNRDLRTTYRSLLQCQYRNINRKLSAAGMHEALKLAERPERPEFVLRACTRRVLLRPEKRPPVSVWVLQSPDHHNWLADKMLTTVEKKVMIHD

[20] = tested on: PAR in PBMCs and tumor; conditions: cited from earlier work; for treatment related adverse events: single dose 10 or 25 mg
[21] = tested on: PARP; conditions: cited from earlier work
[22] = cited from earlier work; remark: listed apart in the source
[23] = dog, 5 μM; cited from earlier work
[24] = monkey; cited from earlier work
[25] = tested on: B Cell lymphoma (human DOHH2); conditions: agent combined with veliparib; cited from earlier work
[26] = tested on: pancreatic cancer; conditions: full-dose gemcitabine with 36 Gy; cited from earlier work
[27] = tested on: unresectable pancreatic cancer; conditions: cited from earlier work
[28] = human, in vivo; cited from earlier work
[29] = tested on: pancreatic cancer; conditions: cited from earlier work
[30] = tested on: locally advanced and metastatic pancreatic carcinomas; conditions: cited from earlier work
[31] = tested on: locally advanced and metastatic pancreatic adenocarcinoma; conditions: cited from earlier work
[32] = all patients, with gemcitabine and IMRT
[33] = biomarker positive (+), DNA repair defects by gene expression

Compound: CCc1c2c(nc3ccc(OC(=O)N4CCC(N5CCCCC5)CC4)cc13)-c1cc3c(c(=O)n1C2)COC(=O)[C@]3(O)CC [Irinotecan]
- veliparib mediated potentiation of cytotoxic agent [1]: Yes

Compound: NC(=O)c1ccc(I)c([N+](=O)[O-])c1 [BSI-201]
- frequency and nature of adverse events ([2]; in vivo): did not differ between arms
- clinical outcome versus chemotherapy alone ([2]; with gemcitabine 1000 mg/m^2 and carboplatin AUC=2): improved CBR, median PFS, and median OS

Compound: O=c1[nH]cc(F)c(=O)[nH]1 [5 FU]
- median survival [3]: 4.41 months
- patients with clinical benefit [3]: 5%

Compound: N.N.O=C([O-])C1(C(=O)[O-])CCC1.[Pt+2] [Carboplatin]
- veliparib mediated potentiation of cytotoxic agent [4]: Yes

Compound: C[C@]1(c2nc3c(C(N)=O)cccc3[nH]2)CCCN1 [veliparib dihydrochloride]
- Cmax as multiple of estimated therapeutic peak plasma concentration ([5]; highest dose with cisplatin): 22 fold
- Cmax as multiple of estimated therapeutic value ([5]; no clinically meaningful exacerbation): up to 8 fold
- Cmax as multiple of estimated therapeutic peak plasma concentration [6]: greater than 19 fold
- adverse effects, sole agent [7]: did not result in adverse effects
- Cmax as multiple of estimated therapeutic peak plasma concentration [8]: 26 fold
- clastogenicity [9]: negative
- mutagenicity [9]: negative
- toxic findings ([10]; 30 mg base/kg/day): emesis, body weight losses related to anorexia, and convulsions
- exacerbation of cisplatin-associated toxicity ([11]; highest dose with cisplatin): Exacerbation of cisplatin-associated toxicity
- exacerbation of cisplatin-associated toxicity ([11]; lower doses with cisplatin): no clinically meaningful exacerbations

Compound: CC1(c2nc3c(C(N)=O)cccc3[nH]2)CCC(=O)N1 (stereo not shown) [A-925088]
- route of clearance [12]: cleared primarily in the urine

Compound: C[C@]1(c2nc3c(C(N)=O)cccc3[nH]2)CCCN1 [veliparib]
- change in mean arterial pressure versus baseline ([13]; 12.96 μg/mL): −16±5%
- change in systemic vascular resistance versus baseline ([13]; 12.96 μg/mL): −10±7%
- QTcV prolongation above baseline ([13]; 12.96±0.92 μg/mL): 15±3%
- mean plasma concentration with modest haemodynamic effects ([13]; dog, in vivo): 12960 ± 920 ng/mL
- mean plasma concentration without haemodynamic change ([13]; dog, in vivo): 4450 ± 130 ng/mL
- mean arterial pressure, heart rate, dP/dtmax, pulmonary arterial pressure, vascular resistance ([13]; mean plasma concentrations up to 4.45 μg/mL): no physiologically relevant changes
- delayed repolarization (QTc intervals), trend ([13]; plasma concentrations 21-fold predicted Cmax): 7%
- γ-H2AX foci (DNA damage) ([14]; added to 1 mM temozolomide): further potentiated
- DNA damage caused by irinotecan ([14]; with irinotecan): potentiates
- stability in plasma [15]: very stable
- outcome after electrically-induced tonic convulsions ([16]; 100 mg/kg PO): increased incidence of death
- outcome in audiogenic seizure model [16]: Death was also noted
- multiple of predicted clinical Cmax ([17]; at 4.45 μg/mL): 21 fold
- multiple of predicted clinical Cmax ([17]; at 12.96 μg/mL): 62 fold
- multiple of predicted clinical Cmax at which QT prolongation was seen ([17]; dog, in vivo): 21 fold
- median OS ([18]; FA biomarker (+)): 18 months
- median OS ([18]; FA biomarker (−)): 12 months
- median OS ([18]; MMR biomarker (+)): 18 months
- median OS ([18]; MMR biomarker (−)): 12 months
- median OS ([18]; NER biomarker (+)): 22 months
- median OS ([18]; NER biomarker (−)): 12 months
- median overall survival (OS) [18, 32]: 14.6 months
- median progression free survival (PFS) [18, 32]: 9.8 months
- median OS ([18]; biomarker negative (−)): 12 mos
- median PFS ([18]; biomarker negative (−)): 8 mos
- median OS [18, 33]: 22 mos
- median PFS [18, 33]: 17 mos
- displacement of control-specific binding [19]: 84%
- patients exceeding target plasma Cmax of 210 nM ([20]; 10 mg dose level): 2 of 3 patients
- patients exceeding target plasma Cmax of 210 nM for at least 4 hours ([20]; 25 mg dose level): all three patients
- reduction of PAR levels from baseline ([20]; single 25 mg dose, PBMCs and tumor samples): 80-99%
- treatment related adverse events [20]: No treatment related adverse events
- treatment related adverse events ([20]; listed as ABT-888): no treatment related adverse events
- inhibition of PARP activity in tumors ([21]; 12.5, 5 and 1 mg/kg/day, vehicle and temozolomide treated groups): significant
- PAR formation in tumors ([21]; veliparib alone, two hours after administration): inhibited PAR formation in B16F10 tumors in a dose-dependent manner
- seizures ([10]; 60 mg/kg/day, 30 mg/kg twice daily or 30 mg/kg every day): seizures were also noted
- non-toxic dose in the most sensitive mammalian species ([10]; beagle dogs): 300 mg/m^2
- plasma concentrations in dogs with seizures ([10]; dog, in vivo): > 5400 ng/mL
- potentiation of cisplatin ([22]; long-term clonogenic assay): potentiation was observed
- potentiation of cisplatin ([22]; short-term cytotoxicity assay): not in the short-term cytotoxicity assay
- protein binding in plasma, % bound [23]: 42%
- oral bioavailability [24]: 56.1%

Compound: O=P1(N(CCCl)CCCl)NCCCO1 (stereo not shown) [Cyclophosphamide]
- veliparib mediated potentiation of cytotoxic agent [4]: Yes

Compound: N.N.[Cl][Pt][Cl] [Cisplatin]
- veliparib mediated potentiation of cytotoxic agent [25]: No
- veliparib mediated potentiation of cytotoxic agent [4]: Yes

Compound: Nc1ccn([C@@H]2O[C@H](CO)[C@@H](O)C2(F)F)c(=O)n1 [gemcitabine, 2′,2′-Difluoro-2′-deoxycytidine]
- disease control rates [26]: 84.6%
- response rates [26]: 5.1%
- tolerability [26]: well-tolerated
- patients with DLT ([27]; FDR-G with IMRT 50-60 Gy): 6 patients
- median overall survival ([27]; in vivo): 23.1 months
- median progression-free survival ([27]; in vivo): 7.2 months
- response rate ([27]; in vivo): 52.4%
- time to steady-state plasma levels after starting infusion [28]: ≤ 15 min
- median survival [3]: 5.56 months
- patients with clinical benefit [3]: ~25%
- objective responses ([29]; combined arm, gemcitabine 600 mg/m^2 with 50.4 Gy): 8.8%
- Grade IV toxicity ([29]; combined group): 41.2%
- objective responses ([29]; gemcitabine alone arm (1000 mg/m^2)): 2.7%
- Grade IV toxicity ([29]; gemcitabine alone): 5.7%
- response rates ([30]; chemo naïve patients): up to 42%
- response rates ([30]; heavily pretreated patients): 11-22%
- intracellular gemcitabine triphosphate concentration ([31]; FDR arm versus standard): two-fold increase
- median survival ([31]; FDR arm, 1,500 mg/m^2 over 150 minutes): 8.0 months
- hematologic toxicity ([31]; FDR infusion arm): increased but acceptable hematologic toxicity
- median survival ([31]; standard arm, 2,200 mg/m^2 over 30 minutes): 5.0 months
